“Also recorded” adds a separate entry of the source.
What was measured:
bovine brain tubulin = bovine brain tubulin (Bos taurus, UniProt P81947+Q6B856); assay: Microtubule assembly, turbidity at 350 nm; type: biochemical; details: 20 μM noscapine, G-PEM buffer, 37° C.
Protocol: Phosphocellulose purified bovine brain tubulin was employed throughout these biophysical experiments. Fluorescence titration for determining binding constants was performed according to Peyrot, V. et al., Biochemistry 31, 11125 (1992). […], at room temperature, 2 μM tubulin in 100 mM PIPES, 2 mM EGTA, 1 mM MgCl2 was excited at 278 nm, and the fluorescence emission spectra were recorded with bandwidths […]. The fluorescence emission intensity of noscapine at this excitation wavelength was negligible and at the concentration of noscapine used it gave no appreciable inner filter effect. The concentration of noscapine was raised in increments of 0.5 μM, until the decrease in the fluorescence intensity was saturated. The value of the dissociation constant and the number of sites were obtained from Scatchard plots using the equation, r/[L]free=n/K^d−r/Kd, where r is the ratio of the concentration of bound ligand to the total protein concentration and n is the number of binding sites. […] Microtubule assembly was recorded on a spectrophotometer with thermocontroler, The cuvettes (0.4 cm path) containing 100 mM PIPES, 2 mM EGTA, 1 mM MgCl2 and 1 mM GTP (G-PEM buffer), and 20 μM noscapine/DMSO were kept at room temperature before addition of tubulin and shifting to 37° C. […] The assembly was monitored by measuring the changes in turbidity at […]. intervals. […]

EL4 thymocytes = assay: M phase arrest, alpha-tubulin immunofluorescence and flow cytometry; type: cell-based; details: thymocyte cells, 20 μM Noscapine, 24 hr
Protocol: (§1) Hela cells were grown in DMEM supplemented with 10% fetal calf serum, 1 mM L-glutamine and 1% penicillin/−streptomycin. The tumor cell line E.G7-OVA (H-2^b) [Moore, M. W., et al., Cell 54,777 (1988)] was grown in RPMI 1640 with 10% fetal calf serum, 1% sodium pyruvate, 1 mM L-glutamine, 0.1% gentamycin, 50 μM β-mercaptoethanol. Cells were grown at 37° C. in a 5% CO2 atmosphere. Cell viability was assessed by trypan blue exclusion analysis. Cell numbers were determined using a hemacytometer. C57BL/6(H-2^b) mice, 8 to 12 weeks of age, were obtained from Harian Sprague Dawley, Inc. (Indiananapolis, Ind.). Mice were maintained on standard laboratory chow and water ad libitum in a temperature and light controlled environment. For immunofluorescence, both Hela and thymocyte cells were treated identically except the Hela cells were grown onto glass coverslips while EL4 thymocytes were put on glass coverslips after fixation. Cells in 10 ml medium were incubated with 2 μl DMSO or 20 μM Noscapine (2 μl 0.1 M DMSO solution) respectively. After 24 hr, cells were fixed with cold (−20° C.) methanol for 5 min., then rehydrated by PBS for 1 min. Nonspecific sites were blocked by incubating with 200 μl of 1% bovine serum albumin (BSA) in phosphate buffered saline (PBS) at 37° C. for 15 minutes. […] Cells were examined with a fluorescence microscope. […] The samples were read on a cytometer.

Hela cells = assay: as above; type: cell-based; details: 20 μM Noscapine, 24 hr
Protocol: as §1

solid lymphoid tumors = assay: Apoptosis in solid lymphoid tumors induced in mice (H&E microscopy); type: in vivo; details: Haemotoxline and Eosine stained cells
E.G7-OVA tumor cells = assay: Survival and tumor regression of E.G7-OVA tumor-bearing mice, noscapine in drinking water; type: in vivo, C57BL/6 mice
Protocol: C57BL/6 mice were injected s.c. with 2×10^6 E.G7-OVA tumor cells. Three days later, two groups received the indicated dose of noscapine in their drinking water. There were 5 mice/group. Untreated mice survived from 6 to 7 weeks after tumor inoculation. In marked contrast, the majority of the mice treated with 1.5 or 3.0 mg/ml Noscapine survived for greater than 16 weeks when the experiment was terminated.
(§2) FIGS. 3A–3I show B6 mice were injected subcutaneously with 2×10^6 E.G7-OVA tumor cells and after three days half of the mice were treated continuously with 1.5 or 3.0 mg noscapine/ml of drinking water. All of the untreated mice developed tumors and were euthanized after three weeks. […] Normal B6 mice (A–C) and mice treated for 3 months with noscapine (D–F) were euthanized.
To test whether E.G7-OVA tumor induced tolerance, tumors were ablated by treating the mice with noscapine in the drinking water beginning three days after tumor transplantation. Tumors grew in all mice that had received E.G7-OVA without noscapine.

[1] = Histology and general toxicity in noscapine-treated mice; type: in vivo, B6 mice
Protocol: as §2
FIGS. 4A–4D show B6 mice were treated with 1.5 mg noscapine/ml in their drinking water or acidified water, as a negative control. One week later mice were injected with OVA in CFA. Mice were sacrificed two weeks later. […] Thus, Noscapine had no detectable toxic effect on lymphoid cells that are proliferating in response to immunization. […] The response of the gut to Noscapine is one of mild irritation. […]

human breast tumors = details: nude mice; cited from earlier work

Chain of bovine brain tubulin (P81947 whole entry): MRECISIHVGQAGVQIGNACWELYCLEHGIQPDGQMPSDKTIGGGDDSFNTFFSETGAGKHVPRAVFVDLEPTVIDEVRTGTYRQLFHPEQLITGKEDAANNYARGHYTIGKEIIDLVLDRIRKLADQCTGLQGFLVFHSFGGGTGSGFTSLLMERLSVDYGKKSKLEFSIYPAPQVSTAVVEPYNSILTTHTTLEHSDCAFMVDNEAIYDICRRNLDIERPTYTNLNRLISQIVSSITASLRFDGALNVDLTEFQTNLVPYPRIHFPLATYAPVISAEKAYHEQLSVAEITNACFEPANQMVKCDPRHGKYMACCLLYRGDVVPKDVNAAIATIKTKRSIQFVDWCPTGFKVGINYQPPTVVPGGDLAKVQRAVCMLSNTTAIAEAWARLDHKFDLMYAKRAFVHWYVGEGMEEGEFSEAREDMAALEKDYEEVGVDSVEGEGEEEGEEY
Chain of bovine brain tubulin (Q6B856 whole entry): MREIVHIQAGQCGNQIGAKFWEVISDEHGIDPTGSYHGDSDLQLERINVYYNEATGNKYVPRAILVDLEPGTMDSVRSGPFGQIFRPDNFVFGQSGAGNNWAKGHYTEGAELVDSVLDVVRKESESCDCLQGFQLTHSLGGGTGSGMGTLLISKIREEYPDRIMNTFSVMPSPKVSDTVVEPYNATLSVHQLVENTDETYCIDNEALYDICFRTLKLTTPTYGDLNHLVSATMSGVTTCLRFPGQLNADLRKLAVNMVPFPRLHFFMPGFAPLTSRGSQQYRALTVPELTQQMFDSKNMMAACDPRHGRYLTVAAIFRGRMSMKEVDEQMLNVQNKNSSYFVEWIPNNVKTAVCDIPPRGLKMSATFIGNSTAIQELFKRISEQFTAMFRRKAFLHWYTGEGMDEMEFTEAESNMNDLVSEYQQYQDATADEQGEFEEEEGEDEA

COc1ccc2c(c1OC)C(=O)O[C@@H]2[C@H]1c2c(cc3c(c2OC)OCO3)CCN1C [Noscapine]
tubulin assembly (absorbance at 350 nm) (bovine brain tubulin): promotes tubulin assembly
M phase arrest of microtubule arrays (EL4 thymocytes): arrested in M phase
M phase arrest of microtubule arrays (Hela cells): arrested in M phase
apoptotic morphologies in tumor cells (solid lymphoid tumors): many cells in noscapine treated mice with apoptotic morphologies
tumor regression (E.G7-OVA tumor cells; 1.5 or 3.0 mg noscapine/ml of drinking water, continuous): disappeared and did not return during four months of continuous treatment; also recorded: majority of tumors in mice treated with noscapine regress
survival after tumor inoculation (E.G7-OVA tumor cells; majority of mice, 1.5 or 3.0 mg/ml in drinking water from day 3, experiment terminated at 16 weeks): greater than 16 weeks
histology of small intestine ([1]; 1.5 mg noscapine/ml drinking water vs acidified water): mild edema of the villi and goblet cell hyperplasia; also recorded: edema, increased frequency of goblet cells, and prominent crypt cells
histology of spleen / lymph nodes ([1]; 1.5 mg noscapine/ml drinking water vs acidified water, immunized with OVA in CFA): no alterations from control mice; also recorded: no significant differences
liver inflammation ([1]; 3.0 mg dose of noscapine): few small areas of inflammation
histological evidence of toxicity to the kidney, liver, or heart ([1]; mouse, in vivo): no significant histological evidence of toxicity
health, body weight and appearance ([1]; noscapine in drinking water): healthy and had normal weights and appearance; also recorded: healthy and of the same weight as the control mice
number of mitotic figures in the crypts of the small intestine ([1]; noscapine in drinking water vs control mice): approximately equal
histology of heart, kidney and liver ([1]; treated for 3 months with noscapine in drinking water, H & E): no significant differences
regression of human breast tumors (human breast tumors): caused regression

Source: patent US7090853B2, “Noscapine derivatives as adjuvant compositions and methods of use thereof” (Emory University, priority 1999, dated 2006)
